Drawing on US9951088B2, “D2 receptor modulators and methods of use thereof in the treatment of diseases and disorders” (SUNOVION PHARMACEUTICALS INC., priority 2012, dated 2018), this text covers EC50, Emax and IC50 for 10 compounds.

The structures appear in SMILES notation.

The target of test [1] is T1, long isoform of human D2 receptor (Homo sapiens, UniProt P14416). The test is described as follows: Arrestin Agonist Assay (DRD2L PathHunter CHO-K1 cells, β-arrestin recruitment). To be noted: for Emax: CHO-K1, read-out: β-arrestin (agonist mode) Emax. Background: Arrestin recruitment assays detect the binding of arrestin to an activated receptor.
Description: Cell Lines: Activities of the compounds were assessed using a Chinese Hamster Ovary (CHO—K1) cell line that recombinantly expressed the long isoform of human D2 receptor (DRD2L PathHunter cells). The D2 receptor DNA sequence was modified to contain a “ProLink” at its C-terminus which allowed complementation with an “enzyme acceptor” (EA)-tagged β-arrestin protein. The recruitment of the O-arrestin by the D2 receptor led to complementation of the ProLink and EA and formation of active β-galactosidase which generated a D2-specific signal that was measured.
Arrestin Agonist Assay: One day prior to testing, a vial of high density stock of DRD2L PathHunter cells was thawed, and 1×10^7 cells diluted into 40 mL of growth media (Ham's F12/10% HI FBS/1% PSG). 20 μL cells per well were seeded directly into assay plates, and the plates were allowed to rest for 1 h at RT before incubating in a plate incubator overnight.
5 μL diluted compound was added to cells in each well, and the assay plate was incubated for 90 min at 37° C. 12.5 μL PathHunter detection reagent was added to each well of the assay plate, which was then covered and incubated for 1 h at RT. The plate was read on an Envision reader using the Luminescence protocol, and the data were exported for analysis.
The agonist Emax results were expressed as a percent of the dopamine control response ((measured specific response/control specific agonist response)×100) obtained in the presence of test article. The EC50 values (concentration producing a half-maximal specific response) were determined by non-linear regression analysis of the concentration-response curves.
For test [2], the target named is T1, long isoform of human D2 receptor. The test is described as follows: cAMP HTRF Agonist Assay (DRD2L PathHunter CHO-K1 cells, forskolin-stimulated). To be noted: for Emax: CHO-K1, read-out: cAMP (agonist mode) Emax.
Test [3] shares this target. The test can be described thus: Arrestin Antagonist Assay (DRD2L PathHunter CHO-K1 cells, vs EC80 dopamine). As to conditions: for Emax: CHO-K1, read-out: β-arrestin (antagonist mode) Imax.

T1 sequence (P14416 whole entry, canonical isoform): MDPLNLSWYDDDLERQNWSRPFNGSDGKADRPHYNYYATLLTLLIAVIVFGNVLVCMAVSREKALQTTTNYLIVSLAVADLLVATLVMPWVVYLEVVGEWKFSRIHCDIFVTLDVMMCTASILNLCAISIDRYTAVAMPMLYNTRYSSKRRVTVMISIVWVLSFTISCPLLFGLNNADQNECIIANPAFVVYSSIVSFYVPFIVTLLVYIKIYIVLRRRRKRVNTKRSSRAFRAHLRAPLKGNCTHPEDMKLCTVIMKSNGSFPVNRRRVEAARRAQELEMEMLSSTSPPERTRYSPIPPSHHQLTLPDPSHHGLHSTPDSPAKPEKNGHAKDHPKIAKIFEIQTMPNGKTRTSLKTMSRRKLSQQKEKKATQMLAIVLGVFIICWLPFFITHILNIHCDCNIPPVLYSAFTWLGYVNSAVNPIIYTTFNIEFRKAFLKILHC

The EC50 is the concentration at which the effect is half-maximal. The low end stands for greater potency, the high end for weaker potency. A word on the IC50: it is the midpoint of a concentration-inhibition curve. Take `O=C1NCCc2ccc(OCCCCN3CCc4nn(-c5ccccc5)cc4C3)nc2N1` [Compound 89, 8-(4-(2-phenyl-6,7-dihydro-2H-pyrazolo[4,3-c]pyridin-5(4H)-yl)butoxy)-4,5-dihydro-1H-pyrido[2,3-d][1,3]diazepin-2(3H)-one]: the EC50 in test [1] was 10 to 100 nM. Further, the Emax was in the range of 25 to 50% in test [1], 25 to 50% in test [2] and 50 to 75% in test [3]. Besides, the IC50 in test [2] and in test [3] was 10 to 100 nM each time.
As for `CCS(=O)(=O)Nc1cccc(OCCCCN2CCc3ccccc3C2)n1` [Compound 43, N-(6-(4-(3,4-dihydroisoquinolin-2(1H)-yl)butoxy)pyridin-2-yl)-ethanesulfonamide], in test [1], the EC50 was more than 10000 nM and the Emax was less than 10%. Moreover, in test [2], the IC50 was more than 10000 nM and the Emax was less than 10%. In addition, in test [3], the IC50 was in the range of 100 to 1000 nM and the Emax was more than 75%.
In turn, `Clc1ccccc1N1CCN(CCCCOc2cccc(-c3cc[nH]n3)n2)CC1` [Compound 50, 1-(4-((6-(1H-pyrazol-3-yl)pyridin-2-yl)oxy)butyl)-4-(2-chlorophenyl)piperazine] returned an EC50 in test [1] of less than 10 nM. In addition, the values for the Emax in test [1], in test [2] and in test [3] were 25 to 50%, 50 to 75% and 50 to 75%, respectively. The half-maximal inhibitory concentration (IC50) in test [2] and in test [3] was less than 10 nM in each case.
On to `N#Cc1cccc2c1CCN(CCCCOc1ccc3ccc(=O)[nH]c3n1)C2` [Compound 62, 2-(4-((7-oxo-7,8-dihydro-1,8-naphthyridin-2-yl)oxy)butyl)-1,2,3,4-tetrahydroisoquinoline-5-carbonitrile], for which, in test [1], the EC50 is less than 10 nM and the Emax fell in the range of 50 to 75%. Besides, in test [2], the IC50 was less than 10 nM and the Emax was more than 75%. In test [3], the IC50 was more than 10000 nM and the Emax is less than 10%.
With `N#Cc1ccc2c(c1)CCN(CCCCOc1ccc3ccc(=O)[nH]c3n1)C2` [Compound 57, 2-(4-((7-oxo-7,8-dihydro-1,8-naphthyridin-2-yl)oxy)butyl)-1,2,3,4-tetrahydroisoquinoline-6-carbonitrile], in test [1], the EC50 is more than 10000 nM and the Emax is less than 10%. Further, in test [2], the IC50 was more than 10000 nM and the Emax is less than 10%. Further, in test [3], the concentration for half-maximal inhibition (IC50) fell in the range of 10 to 100 nM and the Emax is more than 75%.
On to `Cc1cccc(N2CCN(CCCCOc3ccc4cccc(O)c4n3)CC2)c1C` [Compound 7, 2-(4-(4-(2,3-dimethylphenyl)piperazin-1-yl)butoxy)quinolin-8-ol], for which, in test [1], the EC50 is more than 10000 nM and the Emax is less than 10%. For the same compound, in test [2], the IC50 was in the range of 10 to 100 nM and the Emax was in the range of 25 to 50%. Also, in test [3], the IC50 was in the range of 100 to 1000 nM and the Emax was more than 75%.
In test [1], `O=C1NCCc2ccc(OCCCCN3CCc4ccsc4C3)nc2N1` [Compound 87] displayed an EC50 of more than 10000 nM. For the same compound, the Emax in test [1] is less than 10%; in test [2], less than 10%; in test [3], more than 75%. In addition, the IC50 was more than 10000 nM in test [2] and 10 to 100 nM in test [3].
With `c1ccc(N2CCN(CCCCOc3ccc4cn[nH]c4n3)CC2)nc1` [Compound 4, 6-(4-(4-(pyridin-2-yl)piperazin-1-yl)butoxy)-1H-pyrazolo[3,4-b]pyridine], in test [1], the EC50 lay in the range of 10 to 100 nM and the Emax was more than 75%. In addition, in test [2], the IC50 is less than 10 nM and the Emax is more than 75%. Further, in test [3], the IC50 is more than 10000 nM and the Emax is less than 10%.
Consider `COc1ccc2c(c1)CCN(CCCCOc1ccc3ccc(=O)[nH]c3n1)C2` [Compound 55, 7-(4-(6-methoxy-3,4-dihydroisoquinolin-2(1H)-yl)butoxy)-1,8-naphthyridin-2(1H)-one], for which, in test [1], the EC50 was less than 10 nM and the Emax lay in the range of 10 to 25%. Also, in test [2], the IC50 was less than 10 nM and the Emax fell in the range of 25 to 50%. Besides, in test [3], the IC50 is less than 10 nM and the Emax is more than 75%.
`Oc1cccc2ccc(OCCCCN3CCc4cc(Cl)ccc4C3)nc12` [Compound 14, 2-(4-(6-chloro-3,4-dihydroisoquinolin-2(1H)-yl)butoxy)quinolin-8-ol] gave an EC50 in test [1] of more than 10000 nM. Besides, the Emax is less than 10% in test [1], less than 10% in test [2] and more than 75% in test [3]. For the same compound, the figures for the IC50 in test [2] and in test [3] were more than 10000 nM and 1000 to 10000 nM, respectively.
